Results taken from the NIST ThermoML archive (doi:10.1021/je100581m).
Numbers after ± are expanded uncertainties.

Experiment: xn = mol fraction of the nth substance listed
Settings: Liquid, Vibrating tube method

C=CC(C)(O)CCC=C(C)C (stereo not given) [3,7-dimethyl-1,6-octadien-3-ol] + CCCO
mass density [kg/m3]
Settings | x2 = 0 | x2 = 0.107 | x2 = 0.206 | x2 = 0.3066 | x2 = 0.4064 | x2 = 0.501 | x2 = 0.6034 | x2 = 0.7055 | x2 = 0.7985 | x2 = 0.898
283.15 K, 100 kPa | 869.5 ± 1.1 | 867 ± 1.1 | 864.9 ± 1.1 | 862.1 ± 1 | 859 ± 1 | 855.4 ± 1 | 850.3 ± 1 | 843.7 ± 1 | 835.9 ± 1 | 825.2 ± 1
283.15 K, 5000 kPa | 872.6 ± 1.1 | 870.2 ± 1.1 | 868.1 ± 1.1 | 865.4 ± 1.1 | 862.2 ± 1 | 858.6 ± 1 | 853.6 ± 1 | 847 ± 1 | 839.3 ± 1 | 828.8 ± 1
283.15 K, 10000 kPa | 875.7 ± 1.2 | 873.1 ± 1.1 | 871 ± 1.1 | 868.3 ± 1.1 | 865.2 ± 1 | 861.6 ± 1 | 856.7 ± 1 | 850 ± 1 | 842.4 ± 1 | 832 ± 1
283.15 K, 15000 kPa | 878.7 ± 1.2 | 876.2 ± 1.1 | 874.1 ± 1.1 | 871.4 ± 1.1 | 868.3 ± 1 | 864.8 ± 1 | 859.9 ± 1 | 853.3 ± 1 | 845.8 ± 1 | 835.5 ± 1
283.15 K, 20000 kPa | 881.5 ± 1.2 | 879 ± 1.1 | 876.9 ± 1.1 | 874.4 ± 1.1 | 871.3 ± 1.1 | 867.7 ± 1 | 862.8 ± 1 | 856.3 ± 1 | 848.8 ± 1 | 838.6 ± 1
298.15 K, 100 kPa | 857.3 ± 1.1 | 854.8 ± 1.1 | 852.7 ± 1.1 | 849.9 ± 1 | 846.8 ± 1 | 843.2 ± 1 | 838.2 ± 1 | 831.6 ± 1 | 824 ± 1 | 813.4 ± 1
298.15 K, 5000 kPa | 860.6 ± 1.1 | 858.1 ± 1.1 | 856 ± 1.1 | 853.3 ± 1.1 | 850.2 ± 1 | 846.7 ± 1 | 841.7 ± 1 | 835.1 ± 1 | 827.7 ± 1 | 817.2 ± 1
298.15 K, 10000 kPa | 863.9 ± 1.2 | 861.4 ± 1.1 | 859.4 ± 1.1 | 856.6 ± 1.1 | 853.6 ± 1 | 850.1 ± 1 | 845.2 ± 1 | 838.7 ± 1 | 831.2 ± 1 | 820.8 ± 1
298.15 K, 15000 kPa | 867 ± 1.2 | 864.6 ± 1.1 | 862.6 ± 1.1 | 859.9 ± 1.1 | 856.8 ± 1.1 | 853.3 ± 1 | 848.5 ± 1 | 842 ± 1 | 834.6 ± 1 | 824.4 ± 1
298.15 K, 20000 kPa | 870 ± 1.2 | 867.7 ± 1.1 | 865.6 ± 1.1 | 863 ± 1.1 | 859.9 ± 1.1 | 856.5 ± 1 | 851.6 ± 1 | 845.2 ± 1 | 837.9 ± 1 | 827.8 ± 1
313.15 K, 100 kPa | 844.5 ± 1.1 | 842.1 ± 1.1 | 840.1 ± 1.1 | 837.3 ± 1 | 834.1 ± 1 | 830.5 ± 1 | 825.6 ± 1 | 819.1 ± 1 | 811.6 ± 1 | 801.2 ± 1
313.15 K, 5000 kPa | 848.2 ± 1.1 | 845.8 ± 1.1 | 843.8 ± 1.1 | 841.1 ± 1.1 | 837.9 ± 1 | 834.4 ± 1 | 829.5 ± 1 | 823.1 ± 1 | 815.6 ± 1 | 805.3 ± 1
313.15 K, 10000 kPa | 851.6 ± 1.1 | 849.3 ± 1.1 | 847.3 ± 1.1 | 844.6 ± 1.1 | 841.5 ± 1 | 838 ± 1 | 833.2 ± 1 | 826.8 ± 1 | 819.4 ± 1 | 809.2 ± 1
313.15 K, 15000 kPa | 855 ± 1.2 | 852.8 ± 1.1 | 850.8 ± 1.1 | 848.1 ± 1.1 | 845.1 ± 1.1 | 841.5 ± 1 | 836.7 ± 1 | 830.4 ± 1 | 823.2 ± 1 | 813.1 ± 1
313.15 K, 20000 kPa | 858.4 ± 1.2 | 856.1 ± 1.1 | 854.1 ± 1.1 | 851.5 ± 1.1 | 848.4 ± 1.1 | 844.9 ± 1.1 | 840.2 ± 1 | 833.9 ± 1 | 826.7 ± 1 | 816.7 ± 1
328.15 K, 100 kPa | 831.7 ± 1.1 | 829.4 ± 1.1 | 827.3 ± 1.1 | 824.5 ± 1 | 821.3 ± 1 | 817.7 ± 1 | 812.8 ± 1 | 806.3 ± 1 | 799 ± 1 | 788.7 ± 1
328.15 K, 5000 kPa | 835.6 ± 1.1 | 833.3 ± 1.1 | 831.2 ± 1.1 | 828.5 ± 1.1 | 825.3 ± 1 | 821.8 ± 1 | 816.9 ± 1 | 810.5 ± 1 | 803.3 ± 1 | 793.1 ± 1
328.15 K, 10000 kPa | 839.5 ± 1.1 | 837.2 ± 1.1 | 835.2 ± 1.1 | 832.5 ± 1.1 | 829.3 ± 1 | 825.8 ± 1 | 821 ± 1 | 814.7 ± 1 | 807.5 ± 1 | 797.5 ± 1
328.15 K, 15000 kPa | 843.1 ± 1.2 | 840.9 ± 1.1 | 838.8 ± 1.1 | 836.2 ± 1.1 | 833 ± 1.1 | 829.5 ± 1 | 824.8 ± 1 | 818.5 ± 1 | 811.4 ± 1 | 801.5 ± 1
328.15 K, 20000 kPa | 846.7 ± 1.2 | 844.4 ± 1.1 | 842.4 ± 1.1 | 839.8 ± 1.1 | 836.7 ± 1.1 | 833.2 ± 1.1 | 828.5 ± 1 | 822.3 ± 1 | 815.2 ± 1 | 805.3 ± 1
